EC50 and IC50 data for 16 compounds are collected here from US12312359B2 (Vitae Pharmaceuticals, LLC, priority 2016, dated 2025).

Assay [1] deals with human acute monocytic leukemia cell line MV-4-11. Nature of the assay: Assay 2: cell proliferation assay (ATP quantitation, CellTiter-Glo), MV-4-11. The format is cell-based. As to conditions: MV-4-11 cells. The procedure:
Potencies of inhibitor compounds against cell proliferation was assessed against the human acute monocytic leukemia cell line MV-4-11 (ATCC® CRL-9591™) based on ATP quantitation. MV-4-11 cells or toxicity control HL-60 cells (ATCC® CCL-240™) were incubated in 96-well tissue culture plates (1.67×10^4 cells in 200 μL culture media containing 10% FBS per well) with or without test compound for 72 h at 37° C., 5% CO2. After incubation, each well was mixed by pipetting and 95 μL from each well was transferred to a well in 96-well black OptiPlate® plates (PerkinElmer). An equal volume of CellTiter-Glo® Luminescent Cell Viability Assay reagent (Promega) was added to each well, followed by mixing for 5 min on an orbital plate shaker. Luminescence was measured on a Wallac EnVision 2104 Multilabel Reader (PerkinElmer) to quantitate ATP.

Assay [2] addresses T1, biotinylated wild-type menin and MLL-AF9 fusion protein (menin/MLL binding) (Homo sapiens, UniProt O00255).
T1 construct: made in house; host or cells: menin: E. coli; MLL-AF9-FLAG: HEK293 cells, used as cleared lysate
T1 sequence (O00255 1-610): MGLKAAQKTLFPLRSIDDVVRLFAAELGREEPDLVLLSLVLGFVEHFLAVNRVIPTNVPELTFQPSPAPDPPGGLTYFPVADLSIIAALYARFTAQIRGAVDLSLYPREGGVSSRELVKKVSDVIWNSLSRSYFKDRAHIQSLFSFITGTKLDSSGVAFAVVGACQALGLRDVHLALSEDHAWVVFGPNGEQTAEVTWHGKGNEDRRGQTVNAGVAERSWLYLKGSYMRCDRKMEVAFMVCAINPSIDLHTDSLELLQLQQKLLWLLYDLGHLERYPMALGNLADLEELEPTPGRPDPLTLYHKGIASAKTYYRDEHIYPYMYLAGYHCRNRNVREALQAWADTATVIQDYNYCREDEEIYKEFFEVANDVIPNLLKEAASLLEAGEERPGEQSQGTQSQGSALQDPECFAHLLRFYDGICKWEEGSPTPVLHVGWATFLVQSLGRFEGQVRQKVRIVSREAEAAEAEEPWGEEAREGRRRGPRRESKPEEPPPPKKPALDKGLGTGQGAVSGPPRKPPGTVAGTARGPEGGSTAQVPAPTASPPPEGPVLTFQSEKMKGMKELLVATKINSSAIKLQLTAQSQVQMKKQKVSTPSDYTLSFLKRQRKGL
Nature of the assay: Assay 1: menin/MLL binding AlphaLISA assay, wild-type menin. Particulars: Table 30; column head does not say wild-type or mutated menin. The procedure:
Potencies of inhibitor compounds against menin/MLL binding were assessed by AlphaLISA assay using biotinylated (1) wild-type menin or (2) mutated menin (described in Huang et al, 2012, Nature, 482, 542-546) and MLL-AF9 fusion protein bearing a FLAG epitope at its C-terminus. Menin proteins were expressed in E. coli and covalently modified with biotin using EZ-Link™ Sulfo-NHS-Biotin (ThermoFisher Cat.No. 21217) according to manufacturer's protocol. MLL1-1,396 fused to AF91-92 and the C-terminal FLAG peptide was expressed in HEK293 cells and used as a lysate cleared at 21,000×g for 10 min.
Compounds (2 μL of solutions in DMSO) were dispensed in white 96-well half-area plates (Corning Cat.No. 3693) and incubated for 30 min at RT with 5 nM biotinylated menin and appropriate amount of MLL-AF9-FLAG lysate in 40 μL of 50 mM Tris-HCl buffer pH 7.4 containing 5% (v/v) DMSO, 50 mM NaCl, 0.01% (w/v) bovine serum albumin (BSA) and 1 mM DTT. To this incubation mixture, 40 μL of AlphaLISA anti-FLAG acceptor (PerkinElmer Cat.No. AL112C) and streptavidin donor (PerkinElmer Cat.No. 6760002) beads (10 μg/mL each) was added and incubation continued at RT for 60 min. Alpha (amplified luminescent proximity homogeneous assay) signal was measured on an Envision multi-label plate reader at the end of the incubation. All steps were conducted under dim fluorescent light.
These percent inhibition values were regressed against compound concentrations in the assay using four parameter logit non-linear curve fitting (XLFit, IDBS). The IC50 values were derived from the curve fitting as inflection points on the dose-response curves and are set out in Table 30 below.
(In Alpha technology, singlet oxygen from a donor bead excites a nearby acceptor bead.)

By EC50 is commonly meant the concentration giving half of the maximal effect. Broadly, the IC50 is the concentration at which inhibition is half-maximal. A lower IC50 goes with greater potency in that assay. `CC(C)c1ccccc1-c1cc(F)ccc1Oc1cncnc1N1CCC2(CCN(C[C@H]3CC[C@H](N)CC3)C2)C1` (some centres unmarked) [Example 219, (1r,4r)-4-((7-(5-((5-fluoro-2′-isopropyl-[1,1′-biphenyl]-2-yl)oxy)pyrimidin-4-yl)-2,7-diazaspiro[4.4]nonan-2-yl)methyl)cyclo-hexan-1-amine] showed an EC50 in assay [1] (Homo sapiens, MV4-11, 72 h) of 100 to 1000 nM. The IC50 in assay [2] was less than 100 nM.
As to `N#Cc1ccc2c(CN3CCC4(CCN(c5ncncc5Oc5ccc(F)cc5OC5CCCC5)C4)C3)c[nH]c2c1` (centres unmarked) [Example 192, 3-((7-(5-(2-(cyclopentyloxy)-4-fluorophenoxy)pyrimidin-4-yl)-2,7-diazaspiro[4.4]nonan-2-yl)methyl)-1H-indole-6-carbonitrile], the EC50 in assay [1] (Homo sapiens, MV4-11, 72 h) fell in the range of 100 to 1000 nM. For the same compound, in assay [2], the IC50 was less than 100 nM.
As for `O=c1[nH]c2ccc(CN3CCC4(CCN(c5ncncc5Oc5ccc(F)cc5-c5cccnc5C5CC5)C4)C3)cc2[nH]1` (centres unmarked) [Example 180, 5-((7-(5-(2-(2-cyclopropylpyridin-3-yl)-4-fluorophenoxy)pyrimidin-4-yl)-2,7-diazaspiro[4.4]nonan-2-yl)methyl)-1,3-dihydro-2H-benzo[d]imidazol-2-one], the EC50 in assay [1] (Homo sapiens, MV4-11, 72 h) was less than 100 nM. Moreover, the IC50 in assay [2] is less than 100 nM.
With `CCOC(=O)c1ccccc1-c1cc(F)ccc1Oc1cncnc1N1CCC2(CCN(Cc3ccc4[nH]c(=O)[nH]c4c3)C2)C1` (centres unmarked) [Example 223, ethyl 5′-fluoro-2′-((4-(7-((2-oxo-2,3-dihydro-1H-benzo[d]imidazol-5-yl)methyl)-2,7-diazaspiro[4.4]nonan-2-yl)pyrimidin-5-yl)oxy)-[1,1′-biphenyl]-2-carboxylate], in assay [1] (Homo sapiens, MV4-11, 72 h), the EC50 lay within 100 to 1000 nM. This compound registered an IC50 in assay [2] of less than 100 nM.
As to `CC(C)n1nccc1-c1cc(F)ccc1Oc1cncnc1N1CCC2(CCN(Cc3ccc4[nH]c(=O)[nH]c4c3)C2)C1` (single isomer, unassigned) [Example 197B, 5-((7-(5-(4-fluoro-2-(1-isopropyl-1H-pyrazol-5-yl)phenoxy)pyrimidin-4-yl)-2,7-diazaspiro[4.4]nonan-2-yl)methyl)-1,3-dihydro-2H-benzo[d]imidazol-2-one], the EC50 in assay [1] (72 h) is less than 100 nM. In addition, in assay [2], the IC50 is less than 100 nM.
In turn, `CC(C)N(C(=O)c1cc(F)ccc1Oc1cncnc1N1CCC2(CC(N)C(Cc3ccc4[nH]c(=O)[nH]c4c3)C2)C1)C(C)C` (single isomer, unassigned) [Example 24A, 2-((4-(7-amino-8-((2-oxo-2,3-dihydro-1H-benzo[d]imidazol-5-yl)methyl)-2-azaspiro[4.4]nonan-2-yl)pyrimidin-5-yl)oxy)-5-fluoro-N,N-diisopropylbenzamide] gave an EC50 in assay [1] (Homo sapiens, MV4-11, 72 h) of no less than 1000 nM. Besides, the IC50 in assay [2] was less than 100 nM.
Taken in the same sequence, the figures for `CC(C)N(C(=O)c1cc(F)ccc1Oc1cncnc1N1CC2(CCN(CC3CCC(O)CC3)C2)C1)C(C)C` (centres unmarked) [Example 99, 5-fluoro-2-((4-(6-((4-hydroxycyclohexyl)methyl)-2,6-diazaspiro[3.4]octan-2-yl)pyrimidin-5-yl)oxy)-N,N-diisopropylbenzamide] were 100 to 1000 nM and less than 100 nM.
As for `CC(C)N(C)C(=O)c1cc(F)ccc1Oc1cncnc1N1CCC2(CCN(Cc3ccc4c(c3)[nH]c(=O)n4CCN(C)C)C2)C1` (centres unmarked) [Example 124, 2-((4-(7-((1-(2-(dimethylamino)ethyl)-2-oxo-2,3-dihydro-1H-benzo[d]imidazol-5-yl)methyl)-2,7-diazaspiro[4.4]nonan-2-yl)pyrimidin-5-yl)oxy)-5-fluoro-N-isopropyl-N-methylbenzamide], the EC50 in assay [1] (Homo sapiens, MV4-11, 72 h) fell in the range of 100 to 1000 nM. This compound came in with an IC50 in assay [2] of less than 100 nM.
Taken in the same sequence, the figures for `CC(C)N(C)C(=O)c1cc(F)ccc1Oc1cncnc1N1CC2(CN(CC3CCCCC3)C2)C1` [Example 167, 2-((4-(6-(cyclohexylmethyl)-2,6-diazaspiro[3.3]heptan-2-yl)pyrimidin-5-yl)oxy)-5-fluoro-N-isopropyl-N-methylbenzamide] were 100 to 1000 nM and less than 100 nM.
Turning to `CC(C)N(C(=O)c1cc(F)ccc1Oc1cncnc1N1CC2(CCN(CC3CCC(O)CC3)CC2)C1)C(C)C` (centres unmarked) [Example 98, 5-fluoro-2-((4-(7-((4-hydroxycyclohexyl)methyl)-2,7-diazaspiro[3.5]nonan-2-yl)pyrimidin-5-yl)oxy)-N,N-diisopropylbenzamide], the EC50 in assay [1] (Homo sapiens, MV4-11, 72 h) lay within 100 to 1000 nM. This compound also gave an IC50 in assay [2] of less than 100 nM.
The corresponding values for `CC(C)c1ncncc1-c1cc(F)ccc1Oc1cncnc1N1CCC2(CCN(Cc3ccc4c(c3)NC(=O)C4(C)C)C2)C1` (centres unmarked) [Example 178, 6-((7-(5-(4-fluoro-2-(4-isopropylpyrimidin-5-yl)phenoxy)pyrimidin-4-yl)-2,7-diazaspiro[4.4]nonan-2-yl)methyl)-3,3-dimethylindolin-2-one] are less than 100 nM and less than 100 nM.
On to `CC(C)(C)OC(=O)N[C@H]1CC[C@H](CN2CCC3(CCN(c4ncncc4Oc4ccc(F)cc4OC4CCCC4)C3)C2)CC1` (some centres unmarked) [Example 147, tert-butyl ((1r,4r)-4-((7-(5-(2-(cyclopentyloxy)-4-fluorophenoxy)pyrimidin-4-yl)-2,7-diazaspiro[4.4]nonan-2-yl)methyl)cyclohexyl) carbamate], for which the EC50 in assay [1] (Homo sapiens, MV4-11, 72 h) is no less than 1000 nM. The compound also returned an IC50 in assay [2] of less than 100 nM.
Consider `N#Cc1ccc(-c2cc(F)cc(F)c2Oc2cncnc2N2CCC3(CCN(Cc4ccc5[nH]c(=O)[nH]c5c4)C3)C2)c(C2CC2)c1` (centres unmarked) [Example 52, 2-cyclopropyl-3′,5′-difluoro-2′-((4-(7-((2-oxo-2,3-dihydro-1H-benzo[d]imidazol-5-yl)methyl)-2,7-diazaspiro[4.4]nonan-2-yl)pyrimidin-5-yl)oxy)-[1,1′-biphenyl]-4-carbonitrile], for which the EC50 in assay [1] (72 h) is less than 100 nM. This compound yielded an IC50 in assay [2] of less than 100 nM.
`CC(C)N(C)C(=O)c1cc(F)ccc1Oc1cncnc1N1CCC2(CCN(Cc3ccc4[nH]c(=O)[nH]c4c3)C2)C1` (single isomer, unassigned) [Example 183A, 5-fluoro-N-isopropyl-N-methyl-2-((4-(7-((2-oxo-2,3-dihydro-1H-benzo[d]imidazol-5-yl)methyl)-2,7-diazaspiro[4.4]nonan-2-yl)pyrimidin-5-yl)oxy)benzamide] came in with an EC50 in assay [1] (Homo sapiens, MV4-11, 72 h) of less than 100 nM. In addition, the IC50 in assay [2] is less than 100 nM.
Compound `CC(=O)N[C@H]1CC[C@H](CN2CCC3(CCN(c4ncncc4Oc4ccc(F)cc4-c4ccc(C#N)cc4C4CC4)C3)C2)CC1` (some centres unmarked) [Example 188, N-((1r,4r)-4-((7-(5-((4′-cyano-2′-cyclopropyl-5-fluoro-[1,1′-biphenyl]-2-yl)oxy)pyrimidin-4-yl)-2,7-diazaspiro[4.4]nonan-2-yl)methyl)cyclohexyl) acetamide] yielded an EC50 in assay [1] (Homo sapiens, MV4-11, 72 h) of 100 to 1000 nM. This compound also gave an IC50 in assay [2] of less than 100 nM.
In turn, `COC(=O)N[C@H]1CC[C@H](CN2CCC3(CC2)CN(c2ncncc2Oc2ccc(F)cc2C(=O)N(C)C(C)C)C3)CC1` [Example 95, methyl ((1r,4r)-4-((2-(5-(4-fluoro-2-(isopropyl(methyl)carbamoyl)phenoxy)pyrimidin-4-yl)-2,7-diazaspiro[3.5]nonan-7-yl)methyl)cyclohexyl) carbamate] returned an EC50 in assay [1] (Homo sapiens, MV4-11, 72 h) of 100 to 1000 nM. The IC50 in assay [2] is less than 100 nM.
